In series [1] the test system is Hep3B2.1-7 human hepatic carcinoma. The note with it: for Survival / Tumour weight, Mean: 21 days; for Tumour weight, Mean: SCID mice. The text has this: The orthotopic xenograft mouse model of Hep3B2.1–7 human hepatic carcinoma was previously established. Tumors were created by injection of 2.5 × 10^6 Hep3B2.1-7 cells (ATCC, RRID:CVCL_0326; Virginia, Manassas, USA) into the main lobe of the liver of anaesthetized female SCID mice (C.B-17-Igh-1bPrkdc(scid)). […] Treatments were continued for 21 days. Treatment of animals was ceased when the body weight dropped below 85% of that on entry of the study. Only mice culled at the termination date were used to determine the tumor weight. The experiment was conducted by vivoPharm pty Ltd (Bundoora, Australia) in accordance with the principles outlined in the “Australian Code of Practice for the Care and Use of Animals for Scientific Purposes”, 7th Edition, 2004 (National Health and Medical Research Council, Canberra, Australia). All procedures involving animals were reviewed and approved by the University of Adelaide Animal Ethics Committee. The study was carried out in compliance with the ARRIVE guidelines (http://www.nc3rs.org.uk/page.asp?id=1357). […]
invasion assay. The ODs of the invaded cells were normalized relative to ODs from tissue […]
Orthotopic xenograft mouse model
The orthotopic xenograft mouse model of Hep3B2.1-7 human hepatic carcinom a was previously established. The experiment was conducted by vivoPharm pty Ltd (Australia) in accordance with the principles outlined in the Australian Code of Practice for the Care and Use of Animals for Scientific Purposes, 7th Edition, 2004 (National Health and Medical Research Council). Procedures involving the care and use of animals in thi s study were reviewed and approved by the University of Adelaide Animal Ethics Committee. The study was carried out in compliance with the ARRIVE guidelines
(http://www.nc3rs.org.uk/page.asp?id=1357).
The animals were delivered to the test facility 1 1 days prior inoculation. On arrival, all animals received a detailed physical examination, including body weight measurement by the […]
technical staff. […] Each a nimal was identified by a transponder (Bar Code Data Systems Pty Ltd, Botany Bay, NSW, Australia) that could be scanned with a barcode reader (DataMars LabMax I). The transponder was implanted by subcutaneous injection between the shoulder blades while the mouse was under isoflurane-induced anaesthesia. The animals were housed in groups of six in micro-isolator cages (two cages per group). Each cage was clearly labelled with a cage card indicating study number, group, gender, and prescribed dose concentration and dose volume. The animals were kept in a controlled environment (targeted ranges: temperature 21 ± 3°C, humidity 30 -70%, 15 air changes per hour), with a light/dark cycle each of 12 hours, and under barrier (quarantine) conditions. Temperature and relative humidity were monitored continuously. All animals were subjected to the same environmental conditions. A standard certified commercial rodent diet (Rat and Mouse Cubes, Specialty Feeds Pty Ltd, Glen Forrest, WA, Australia) and tap water were provided to the animals ad libitum. Food supply was sterilized by autoclaving, and water […]
supply was sterilized by acidification with hydrochloric acid (pH 2.4-2.7) by Laboratory Animal Services, University of Adelaide (Adelaide, SA, Australia). Additional feed (a nimal seed, Magill Grain Store, Magill, SA, Australia), as well as wet standard feed was provided to all animals from Day 7 onwards, as a measure to minimize body w eight loss. The extent of adverse reaction was assessed during the study and mice were culled if severe adverse […]
The age range of the mice were 12-16 weeks at
Hep3B2.1-7 human hepatic carcinoma cells were sourced from the American Type Culture […]
Collection (ATCC; Virginia, USA).

Series [2] relates to ACHN. Briefly: Efficacy screening assay. The class given is cell-based. The conditions noted are these: 72 h, kidney. Here is the method:
(§1) In a two-step reaction, the substrate with the acetylated lysine side chain was incubated for with a sample containing HDAC activity to p roduce the deacetylated products: 1 h at 30°C for HDAC1, 2, 3 and 6; 30 min at RT for HDAC4, 5, 7 and 9; 2 h at 30°C for HDAC8, 10 and […]
(§2) (excitation) and 460 nm (emission). […]
(§3) The experiment was performed by Oncolead GmbH & Co. KG (Karlsfeld , Germany), based on a standardized screening procedure . Cell lines were purchased directly from the ATCC, NCI and DSMZ cell line c ollections. Cells used for the study had undergone less than 20 passages. To ensure the absence of potential contamination and wrong assignment, all cell lines were tested using a whole genome assay (Agilent, USA). All cell lines were grown as recommended by the suppliers and with addition of 100 U/mL penicillin G and 100 µg/mL; streptomycin. Cell growth and treatments were performed in Nunclon D 96 -well plates (NUNC, Germany). The optimal seeding density for each cell line was determined to ensure exponential growth for the duration of the experiment. All cells growing without anti-cancer agents were sub-conﬂuent by the end of the treatment, as determined by visual inspection.
(§4) After an initial 24 h pre-growth period, the compounds were added. The vehicle concentration […]
(§5) was 0.1% DMSO. After incubation at 37°C for 72 h, the culture medium was aspirated, and the cells were precipitated by the addition of 10% trichloroacetic acid (Sigma-Aldrich, Missouri, US). After overnight incubation at 4°C, the plates were washed three times with deionized water. The precipitates were then stained with SRB (0.4% wt/v sulforhodamine B solution in 1% acetic acid, Sigma-Aldrich, Missouri, US). Afterwards, the plates were washed six times with 1% acetic acid to remove unbound stain. After drying the plates at room temperature, the bound SRB was solubilized with 10 mM Tris base and the optical density was measured at 520 nm using a Victor2 plate reader (Perkin Elmer, Germany). Blank OD values were subtracted from mean OD values for each concentration. The nonlinear curve ﬁtting and EC50 calculations were per formed using XLﬁt and algorithm “205” (ID Business […]
(§6) For cell-based and other in vitro assays, data are presented as data mean ± SD of at least […]
(§7) For the orthotopic mouse model, data are presented as mean + SEM. For statistical analysis, one-way ANOVA and multiple comparison (Dunnett) was performed for compound treatments compared to vehicle control. The adjusted p-values with 95% confidence interval were reported as significant. For comparison of EC50 values in Figure 1F, one-way ANOVA with multiple comparison testing (Tukey) was performed. Multiplicity adjusted p -values for the EC50 with sorafenib versus resminostat for each cell line and comparison between cell lines for sorafenib are presented (95% confidence interval for significance testing). For comparison of EC50 data in Figure 2B, one-way ANOVA with multiple comparison testing (Tukey) was performed. Multiplicity adjusted p-values with 95% confidence interval was applied. For the invasion assays in Figure 4, one-way ANOVA with multiple comparison testing (Tukey) was performed. Multiplicity adjusted p-values with 95% confidence interval was applied. The adjusted p-values comparing vehicle control without vs. with platelets and compound

Series [3] relates to NCIH82. Briefly: Efficacy screening assay. The note with it: Homo sapiens, NCI-H82, NCIH82, lung, 72 h. The class given is cell-based. Here is the method: as §1, §2, §3, §4, §5, §6, §7

Like-named read-outs stand apart in the source and are kept apart here.

In the case of `CN(C)Cc1ccc(S(=O)(=O)n2ccc(/C=C/C(=O)NO)c2)cc1` [resminostat, Resminostat], the Survival in series [1] (15 mg/kg oral once daily) and in series [1] (40 mg/kg oral once daily) was 10/12 in each case. For the same molecule, the “Tumour weight, Mean” value in series [1] (15 mg/kg oral once daily) came out at 2.55 g; in series [1] (40 mg/kg oral once daily) it was 1.83 g. Moreover, the “tumor weight compared to the vehicle control” value in series [1] (daily resminostat 15 and 40 mg/kg, sorafenib 40 mg/kg, or combination (Fig. 1B)) was “significantly reduced tumor weight”. For the same molecule, the EC50 (usually the concentration that produces a half-maximal response) in series [2] (Homo sapiens, log of EC50, negative, read-out: log(EC50) (converted)) was 1950 nM; in series [2] (Homo sapiens, read-out: EC50), 1950 nM; in series [2] (read-out: EC50), 1950 nM; in series [3] (log of EC50, negative, read-out: log(EC50) (converted)) it was 776 nM; in series [3] (read-out: EC50) it was 770 nM.
